Common to all, as to type: cell-based
The target of one assay is T1, IKZF1 (Homo sapiens, UniProt Q13422+Q96SW2).
T1 construct: expressed in transfected cells
Kind of assay: HEK293 HiBiT in vitro degradation of IKZF1. Particulars: for DC50: 18-24 hr incubation, normalized to DMSO control, read-out: IKZF1 EC50; for Dmax: HEK293, HEK293 HiBiT. Summed up: (§1)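 EC50 and Dmax come from Nano-Glo lytic luminescence after 18-24 hr compound treatment at 37° C. Reporter cells were single-copy Flp-In T-REx HEK293 pools carrying HiBiT fused to the C-terminus of IKZF1, IKZF2 or SALL4. Expression was induced overnight beforehand with […] doxycycline.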
Background: With HiBiT, luminescence reflects the tagged protein that the partner subunit can reach.

Assay [1] concerns the target T2, IKZF2 (Homo sapiens, UniProt Q96SW2+Q9UKS7). As to the kind of experiment: Human whole blood IKZF2 degradation (flow cytometry, CD4/CD25/Foxp3+ Treg cells). The arrangement: endogenous in cells. The settings on record: 24 hrs incubation, IKZF2 MFI in CD4/CD25/Foxp3+ Treg cells, flow cytometry; for DC50: read-out: IKZF2 EC50. The method, then: In vitro IKZF2 potency was assessed in human whole blood using a fluorescence activated cell sorting assay. 50 μL of freshly collected blood from healthy human volunteers was incubated with Immunocult CD3/CD28 activator (Stemcell Technologies) and solution of testing compounds (serially-diluted) for 24 hrs hours at 37° C. in 384 well plates. The treated red blood cells were removed by adding lysis buffer (BD cat #558049) then the cells were fixed, permeabilized, and stained with anti-CD4 (BD cat #564419), anti-Foxp3 (Invitrogen cat #48-4777-42), anti-IKZF1 (Cell Signaling Tech. cat #33462S), and anti-IKZF2(Cell Signaling Tech. cat #65432S) antibodies. The median fluorescent intensity (MFI) of IKZF2 signal from CD4/CD25/Foxp3+ Treg cells and MFI of IKZF1 signal from CD4+ T cells were quantified in the same samples by flow cytometry using an Attune instrument. EC50 and Dmax of each compound was determined by plotting the MFI and DMSO treated wells were used as control. Asterisks (*) indicate examples for which data represents an average of n≥3 repeat experiments.
Target sequence in this assay (Q9UKS7 whole entry): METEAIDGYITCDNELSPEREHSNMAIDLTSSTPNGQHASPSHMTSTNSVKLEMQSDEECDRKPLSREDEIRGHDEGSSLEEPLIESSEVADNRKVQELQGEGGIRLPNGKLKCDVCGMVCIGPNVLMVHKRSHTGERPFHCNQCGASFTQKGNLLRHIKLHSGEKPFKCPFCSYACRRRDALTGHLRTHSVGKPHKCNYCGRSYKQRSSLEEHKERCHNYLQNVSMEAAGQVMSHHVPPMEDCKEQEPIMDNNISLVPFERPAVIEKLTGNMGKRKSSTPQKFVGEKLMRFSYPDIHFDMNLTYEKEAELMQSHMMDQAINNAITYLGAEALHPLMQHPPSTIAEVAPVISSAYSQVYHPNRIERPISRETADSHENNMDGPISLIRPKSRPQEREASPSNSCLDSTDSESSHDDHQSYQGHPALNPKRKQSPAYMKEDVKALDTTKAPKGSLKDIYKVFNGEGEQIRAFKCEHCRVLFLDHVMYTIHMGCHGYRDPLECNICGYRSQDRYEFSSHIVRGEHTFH
Target sequence in this assay (Q96SW2 whole entry): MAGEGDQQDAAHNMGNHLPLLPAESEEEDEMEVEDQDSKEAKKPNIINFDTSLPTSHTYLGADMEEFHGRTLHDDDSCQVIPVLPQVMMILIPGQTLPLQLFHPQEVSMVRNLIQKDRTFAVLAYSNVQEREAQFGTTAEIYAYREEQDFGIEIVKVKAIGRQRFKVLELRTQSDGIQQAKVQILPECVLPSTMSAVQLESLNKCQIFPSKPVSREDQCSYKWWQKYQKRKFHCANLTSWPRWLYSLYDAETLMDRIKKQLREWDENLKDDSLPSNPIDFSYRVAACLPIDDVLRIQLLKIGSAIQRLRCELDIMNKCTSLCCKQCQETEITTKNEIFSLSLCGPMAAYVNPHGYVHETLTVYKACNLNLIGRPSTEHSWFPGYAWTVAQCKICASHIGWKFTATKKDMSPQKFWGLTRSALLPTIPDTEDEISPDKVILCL
Target sequence in this assay (Q16531 whole entry partner): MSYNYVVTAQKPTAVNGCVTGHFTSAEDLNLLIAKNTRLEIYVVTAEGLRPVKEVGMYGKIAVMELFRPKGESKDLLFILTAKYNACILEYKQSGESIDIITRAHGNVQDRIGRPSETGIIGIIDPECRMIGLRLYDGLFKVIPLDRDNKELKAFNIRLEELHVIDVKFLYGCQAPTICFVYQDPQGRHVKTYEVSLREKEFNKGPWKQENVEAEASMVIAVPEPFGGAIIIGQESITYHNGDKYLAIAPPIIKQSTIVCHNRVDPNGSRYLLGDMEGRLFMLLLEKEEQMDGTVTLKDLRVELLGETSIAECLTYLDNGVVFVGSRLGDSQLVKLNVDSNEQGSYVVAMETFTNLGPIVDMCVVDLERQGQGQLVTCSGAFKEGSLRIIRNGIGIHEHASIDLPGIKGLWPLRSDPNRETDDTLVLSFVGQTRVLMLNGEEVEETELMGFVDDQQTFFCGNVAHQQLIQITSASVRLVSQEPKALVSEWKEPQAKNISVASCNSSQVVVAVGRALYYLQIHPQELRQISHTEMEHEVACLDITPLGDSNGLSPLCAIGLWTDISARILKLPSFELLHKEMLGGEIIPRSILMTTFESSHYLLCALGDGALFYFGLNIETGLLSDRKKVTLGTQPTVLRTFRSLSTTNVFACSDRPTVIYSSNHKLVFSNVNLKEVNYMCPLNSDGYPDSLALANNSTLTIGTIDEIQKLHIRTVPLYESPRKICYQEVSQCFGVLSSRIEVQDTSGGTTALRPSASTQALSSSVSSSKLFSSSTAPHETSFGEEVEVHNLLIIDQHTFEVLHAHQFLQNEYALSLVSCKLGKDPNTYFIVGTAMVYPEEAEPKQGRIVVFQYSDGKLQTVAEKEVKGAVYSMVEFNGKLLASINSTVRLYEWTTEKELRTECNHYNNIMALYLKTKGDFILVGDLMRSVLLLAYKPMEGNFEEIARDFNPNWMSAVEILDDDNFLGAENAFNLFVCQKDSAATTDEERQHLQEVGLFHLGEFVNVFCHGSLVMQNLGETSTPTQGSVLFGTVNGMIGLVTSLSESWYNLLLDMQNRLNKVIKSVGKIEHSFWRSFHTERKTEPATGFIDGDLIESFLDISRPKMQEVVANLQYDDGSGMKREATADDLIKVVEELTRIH
Background: Flow cytometry measures light scatter and fluorescence of single cells or particles in a stream.

Assay [2] has as its target T2, IKZF2. As to the kind of experiment: HEK293 HiBiT in vitro degradation of IKZF2. Set-up: expressed in transfected cells. The settings on record: for DC50 / IKZF2 Dmax: HEK293 HiBiT; for DC50: 18-24 hr incubation, normalized to DMSO control, read-out: IKZF2 EC50; for IKZF2 Dmax / Dmax: maximum degradation at the highest concentration tested; for Dmax: HEK293, HEK293 HiBiT. Summed up: as §1
Target sequence in this assay (Q9UKS7 1-500 isoform Q9UKS7-2): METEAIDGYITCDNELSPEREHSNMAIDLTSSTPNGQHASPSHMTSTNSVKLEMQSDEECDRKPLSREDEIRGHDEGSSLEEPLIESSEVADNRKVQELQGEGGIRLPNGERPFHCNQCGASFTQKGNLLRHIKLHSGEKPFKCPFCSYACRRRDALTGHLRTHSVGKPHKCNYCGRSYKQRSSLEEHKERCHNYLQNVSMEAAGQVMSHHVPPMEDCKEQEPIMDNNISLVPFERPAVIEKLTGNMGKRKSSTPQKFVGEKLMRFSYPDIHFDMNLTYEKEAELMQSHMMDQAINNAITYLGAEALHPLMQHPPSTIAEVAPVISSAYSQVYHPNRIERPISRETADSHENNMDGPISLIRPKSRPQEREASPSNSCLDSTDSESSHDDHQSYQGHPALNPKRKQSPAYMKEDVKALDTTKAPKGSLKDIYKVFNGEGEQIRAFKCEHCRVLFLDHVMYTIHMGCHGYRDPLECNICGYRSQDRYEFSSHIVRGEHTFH
Target sequence in this assay (Q96SW2 whole entry): as the sequence (Q96SW2 whole entry) above
Target sequence in this assay (Q16531 whole entry partner): as the sequence (Q16531 whole entry partner) above

The mark [3] stands for this setting: maximum degradation at the highest concentration tested.

Structures are written as SMILES.

28 compounds from patent US11897862B2 (Gilead Sciences, Inc., priority 2022, dated 2024) can be followed below.

In general, Dmax refers to the greatest extent of degradation seen.

T1 sequence (Q13422 whole entry): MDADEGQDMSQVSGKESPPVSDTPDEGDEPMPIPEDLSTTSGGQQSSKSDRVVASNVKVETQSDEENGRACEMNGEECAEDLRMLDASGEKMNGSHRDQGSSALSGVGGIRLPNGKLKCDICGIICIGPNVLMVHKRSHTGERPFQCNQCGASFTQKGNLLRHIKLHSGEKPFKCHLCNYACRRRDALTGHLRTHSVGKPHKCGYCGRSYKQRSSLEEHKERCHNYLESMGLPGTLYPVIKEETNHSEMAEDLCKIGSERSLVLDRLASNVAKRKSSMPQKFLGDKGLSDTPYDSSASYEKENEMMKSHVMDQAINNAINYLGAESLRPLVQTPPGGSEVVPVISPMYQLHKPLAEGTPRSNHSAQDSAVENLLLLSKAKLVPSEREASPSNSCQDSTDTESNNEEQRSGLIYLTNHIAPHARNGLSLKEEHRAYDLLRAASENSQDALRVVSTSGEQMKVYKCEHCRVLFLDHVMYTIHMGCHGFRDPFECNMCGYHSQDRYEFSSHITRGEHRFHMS
T1 sequence (Q96SW2 whole entry): as the sequence (Q96SW2 whole entry) above
T1 sequence (Q16531 whole entry partner): as the sequence (Q16531 whole entry partner) above

On to `O=C1CCC(N2Cc3cc(C[C@H]4CCCC[C@@H]4NC4CCC(C(F)(F)F)CC4)ccc3C2=O)C(=O)N1` (single isomer, unassigned) [Example 122], for which the DC50 on IKZF1 (HEK293 HiBiT) was 57 nM; at IKZF2 [1], 2 nM; at IKZF2 [2], 2 nM. Also, the “IKZF1 Dmax” value at IKZF1 (HEK293 HiBiT, maximum degradation at the highest concentration tested) stood at 45%. The compound further registered a Dmax at IKZF2 [1] of 97%. In addition, the “IKZF2 Dmax” value on IKZF2 [2] worked out at 96%.
Regarding `CC(N[C@H]1CCCC[C@@H]1Cc1ccc2c(c1)CN(C1CCC(=O)NC1=O)C2=O)C1CC(F)(F)C1` (single isomer, unassigned) [Example 136], the DC50 is over 1000 nM at IKZF1 (HEK293 HiBiT), 6 nM at IKZF2 [1] and 4 nM at IKZF2 [2]. For the same compound, the Dmax at IKZF2 [1] and on IKZF2 [2] was 97% in each case.
Turning to `CC(N[C@H]1CCCC[C@@H]1Cc1ccc2c(c1)CN(C1CCC(=O)NC1=O)C2=O)C1CC(F)(F)C1` (single isomer, unassigned) [Example 137], at IKZF1 (setting [3]), the Dmax turned out to be 34%. Besides, the DC50 on IKZF1 (HEK293 HiBiT) was 54 nM; on IKZF2 [1], 2 nM; at IKZF2 [2], 1 nM. Besides, the “IKZF2 Dmax” value on IKZF2 [1] was found to be 99%; at IKZF2 [2] it was 97%.
For `O=C1CCC(N2Cc3cc(C[C@H]4CCCC[C@@H]4NC4CCC(OC(F)(F)F)CC4)ccc3C2=O)C(=O)N1` (single isomer, unassigned) [Example 145], the Dmax came out at 44% at IKZF1 (setting [3]), 100% at IKZF2 [1] and 96% at IKZF2 [2]. Also, the results for the DC50 on IKZF1 (HEK293 HiBiT), at IKZF2 [1] and on IKZF2 [2] were 55 nM, 4 nM and 2 nM, respectively.
As for `CC(N[C@H]1CCCO[C@@H]1Cc1ccc2c(c1F)CN(C1CCC(=O)NC1=O)C2=O)C1CCC1` (single isomer, unassigned) [Example 247], the DC50 is over 1000 nM on IKZF1 (HEK293 HiBiT), 4 nM on IKZF2 [1] and 5 nM at IKZF2 [2]. Further, the results for the Dmax on IKZF2 [1] and at IKZF2 [2] were 95% and 97%, respectively.
As for `CC(N[C@H]1CCCC[C@@H]1Cc1ccc2c(c1)CN(C1CCC(=O)NC1=O)C2=O)C1(C#N)CC1` (single isomer, unassigned) [Example 256], the values for the DC50 at IKZF1 (HEK293 HiBiT) and at IKZF2 [1] were over 1000 nM and 10 nM, respectively. In addition, the Dmax at IKZF2 [1] is 95%.
In the case of `CC(N[C@H]1CCCO[C@@H]1Cc1ccc2c(c1F)CN(C1CCC(=O)NC1=O)C2=O)C1COC1` (some centres unmarked) [Example 319], the DC50 at IKZF1 (HEK293 HiBiT) is over 1000 nM. Moreover, at IKZF2 [2], the DC50 was determined as 24 nM and the “IKZF2 Dmax” value came to 95%.
As for `CC(CCC(F)F)N[C@H]1CCCO[C@@H]1Cc1ccc2c(c1F)CN(C1CCC(=O)NC1=O)C2=O` (stereo partly drawn) [Example 320, 3-(5-(((2R,3S)-3-((5,5-difluoropentan-2-yl)amino)tetrahydro-2H-pyran-2-yl)methyl)-4-fluoro-1-oxoisoindolin-2-yl)piperidine-2,6-dione], the DC50 was over 1000 nM on IKZF1 (HEK293 HiBiT) and 11 nM on IKZF2 [2]. On IKZF2 [2], the Dmax turned out to be 93%.
Regarding `CC(CCCC(F)(F)F)N[C@H]1CCCO[C@@H]1Cc1ccc2c(c1F)CN(C1CCC(=O)NC1=O)C2=O` (some centres unmarked) [Example 321], the Dmax is 44% on IKZF1 (setting [3]) and 94% at IKZF2 [2]. In addition, the DC50 at IKZF1 (HEK293 HiBiT) was found to be 371 nM; at IKZF2 [2], 6 nM.
As for `CCC(C)(C)N[C@H]1CCCC[C@@H]1Cc1ccc2c(c1)CN(C1CCC(=O)NC1=O)C2=O` (stereo partly drawn) [Example 322, 3-(1-oxo-5-(((1R,2S)-2-(tert-pentylamino)cyclohexyl)methyl)isoindolin-2-yl)piperidine-2,6-dione], the DC50 at IKZF1 (HEK293 HiBiT) is over 1000 nM. Moreover, on IKZF2 [2], the Dmax is 72% and the DC50 was found to be 54 nM.
Take `O=C1CCC(N2Cc3cc(C[C@H]4CCCC[C@@H]4NC4CCC(OC(F)F)CC4)ccc3C2=O)C(=O)N1` (stereo partly drawn) [Example 323, 3-(5-(((1R,2S)-2-((4-(difluoromethoxy)cyclohexyl)amino)cyclohexyl)methyl)-1-oxoisoindolin-2-yl)piperidine-2,6-dione]: the Dmax came to 45% at IKZF1 (setting [3]) and 96% on IKZF2 [2]. In addition, the results for the DC50 at IKZF1 (HEK293 HiBiT) and at IKZF2 [2] were 50 nM and 3 nM, respectively.
Regarding `O=C1CCC(N2Cc3cc(C[C@H]4CCCCC[C@@H]4NC4CCC(F)(F)CC4)ccc3C2=O)C(=O)N1` (some centres unmarked) [Example 340], the DC50 at IKZF1 (HEK293 HiBiT) was over 1000 nM. Besides, at IKZF2 [2], the maximal degradation (Dmax) is 55% and the DC50 came out at 76 nM.
`O=C1CCC(N2Cc3cc(C[C@H]4C[C@@H](F)CC[C@@H]4NC4CCC(F)(F)CC4)ccc3C2=O)C(=O)N1` (some centres unmarked) [Example 341]: the DC50 at IKZF1 (HEK293 HiBiT) was over 1000 nM. Besides, on IKZF2 [2], the Dmax was 87% and the DC50 worked out at 21 nM.
In the same order, the values of `O=C1CCC(N2Cc3cc(C[C@H]4C[C@@H](F)CC[C@@H]4NC4CCCCC4)ccc3C2=O)C(=O)N1` (some centres unmarked) [Example 342] are over 1000 nM, 86% and 18 nM.
As to `O=C1CCC(N2Cc3cc(C[C@H]4CCC(F)(F)C[C@@H]4NC4CCC(F)(F)CC4)ccc3C2=O)C(=O)N1` (some centres unmarked) [Example 345], the Dmax on IKZF1 (setting [3]) is 56%; at IKZF2 [2], 97%. Further, the results for the DC50 on IKZF1 (HEK293 HiBiT) and at IKZF2 [2] were 174 nM and 4 nM, respectively.
Regarding `O=C1CC[C@H](N2Cc3cc(C[C@H]4CCCC[C@@H]4NC4CCC(F)(F)CC4)cc(F)c3C2=O)C(=O)N1` [Example 347], the DC50 at IKZF1 (HEK293 HiBiT) was over 1000 nM. Moreover, on IKZF2 [2], the Dmax is 75% and the DC50 was found to be 38 nM.
Consider `CC(C)N[C@H]1CC(F)(F)CC[C@@H]1Cc1ccc2c(c1)CN(C1CCC(=O)NC1=O)C2=O` (some centres unmarked) [Example 348], for which the Dmax was 39% on IKZF1 (setting [3]) and 97% on IKZF2 [2]. Further, the results for the DC50 at IKZF1 (HEK293 HiBiT) and on IKZF2 [2] were 62 nM and 2 nM, respectively.
In the same order, the values of `CC(N[C@H]1CC(F)(F)CC[C@@H]1Cc1ccc2c(c1)CN(C1CCC(=O)NC1=O)C2=O)C1CCOCC1` (some centres unmarked) [Example 349] are 42%, 92%, 89 nM and 11 nM.
In the same order, the values of `O=C1CCC(N2Cc3cc(C[C@H]4CCCC[C@@H]4NC4CCC(F)(F)CC4)c(F)cc3C2=O)C(=O)N1` (some centres unmarked) [Example 350] are 50%, 94%, 124 nM and 10 nM.
The like results for `O=C1CCC(N2Cc3cc(C[C@H]4CC[C@@H](F)C[C@@H]4NC4CCC(F)(F)CC4)ccc3C2=O)C(=O)N1` (some centres unmarked) [Example 354] were, in that order, 32%, 93%, 30 nM and 3 nM.
Regarding `O=C1CCC(N2Cc3cc(C[C@H]4CC[C@@H](F)C[C@@H]4NC4CCCCC4)ccc3C2=O)C(=O)N1` (some centres unmarked) [Example 355], the DC50 on IKZF1 (HEK293 HiBiT) is over 1000 nM. In addition, on IKZF2 [2], the maximal degradation (Dmax) was 91% and the DC50 is 5 nM.
Take `O=C1CC[C@H](N2Cc3c(ccc(C[C@H]4OCCC[C@@H]4N[C@H]4CC[C@@H](C(F)F)CC4)c3F)C2=O)C(=O)N1` [Example 368]: the DC50 at IKZF1 (HEK293 HiBiT) is over 1000 nM. For the same compound, on IKZF2 [2], the Dmax is 96% and the DC50 worked out at 8 nM.
Take `O=C1CCC(N2Cc3c(ccc(C[C@H]4OCCC[C@@H]4NC4CCc5cn[nH]c5C4)c3F)C2=O)C(=O)N1` (some centres unmarked) [Example 374]: the DC50 at IKZF1 (HEK293 HiBiT) is over 1000 nM. Further, on IKZF2 [2], the Dmax was found to be 98% and the DC50 was found to be 58 nM.
In the case of `O=C1CCC(N2Cc3cc(C[C@H]4CCCC[C@@H]4NC4CCc5c(C(F)(F)F)n[nH]c5C4)ccc3C2=O)C(=O)N1` (some centres unmarked) [Example 375], the figures for the Dmax on IKZF1 (setting [3]) and on IKZF2 [2] were 65% and 99%, respectively. Also, the DC50 amounted to 48 nM on IKZF1 (HEK293 HiBiT) and 4 nM at IKZF2 [2].
The like results for `O=C1CCC(N2Cc3cc(C[C@H]4CCCC[C@@H]4NC4CCC(c5ccccn5)CC4)ccc3C2=O)C(=O)N1` (some centres unmarked) [Example 379] were, in that order, 62%, 96%, 44 nM and 3 nM.
Consider `O=C1CCC(N2Cc3cc(C[C@H]4CCCC[C@@H]4NC4CCC(n5cnnc5)CC4)ccc3C2=O)C(=O)N1` (some centres unmarked) [Example 380], for which the DC50 is over 1000 nM on IKZF1 (HEK293 HiBiT) and 400 nM on IKZF2 [2]. On IKZF2 [2], this compound yielded a Dmax of 71%.
As to `C=C1CC[C@H](N)[C@@H](Cc2ccc3c(c2)CN(C2CCC(=O)NC2=O)C3=O)C1` (stereo partly drawn) [Example 381, 3-(5-(((1R,2S)-2-amino-5-methylenecyclohexyl)methyl)-1-oxoisoindolin-2-yl)piperidine-2,6-dione], the results for the Dmax at IKZF1 (setting [3]) and on IKZF2 [2] were 29% and 65%, respectively. The DC50 at IKZF1 (HEK293 HiBiT) was 108 nM; on IKZF2 [2], 207 nM.
With `O=C1CCC(N2Cc3c(ccc(O[C@H]4CCCC[C@@H]4NC4CCC(F)(F)CC4)c3F)C2=O)C(=O)N1` (some centres unmarked) [Reference Compound B-1, reference compound], the DC50 at IKZF1 (HEK293 HiBiT) was over 1000 nM. On IKZF2 [2], the Dmax came out at 97% and the DC50 was found to be 6 nM.
